From US7838498B2, “Benzylic glycoside derivatives and methods of use” (Theracos, Inc., priority 2007, dated 2010) come the findings set out here.

One assay deals with T1, human SGLT1 (Homo sapiens, UniProt P13866).
T1 construct: Full-length human SGLT1 cDNA on pDream2.1 expression vector was obtained from GenScript Corporation; host or cells: COS-7 cells (American Type Culture Collection)
T1 sequence (P13866 1-664): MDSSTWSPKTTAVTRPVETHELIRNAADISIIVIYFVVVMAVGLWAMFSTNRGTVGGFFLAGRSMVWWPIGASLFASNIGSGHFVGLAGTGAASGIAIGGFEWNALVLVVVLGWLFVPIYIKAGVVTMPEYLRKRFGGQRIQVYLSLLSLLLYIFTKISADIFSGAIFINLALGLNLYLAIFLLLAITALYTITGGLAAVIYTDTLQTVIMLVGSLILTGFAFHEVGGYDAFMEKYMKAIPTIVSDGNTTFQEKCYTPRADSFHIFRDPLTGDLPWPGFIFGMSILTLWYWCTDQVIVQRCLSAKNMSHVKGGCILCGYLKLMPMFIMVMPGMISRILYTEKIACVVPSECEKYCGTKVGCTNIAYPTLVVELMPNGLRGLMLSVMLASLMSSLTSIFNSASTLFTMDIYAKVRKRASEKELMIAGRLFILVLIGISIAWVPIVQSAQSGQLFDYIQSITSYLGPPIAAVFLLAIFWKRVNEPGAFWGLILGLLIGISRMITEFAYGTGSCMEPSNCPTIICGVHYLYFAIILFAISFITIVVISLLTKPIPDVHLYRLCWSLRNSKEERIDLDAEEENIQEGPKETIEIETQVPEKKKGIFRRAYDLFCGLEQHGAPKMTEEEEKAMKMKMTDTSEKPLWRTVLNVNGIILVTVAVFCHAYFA
Nature of the assay: Methyl-α-D-[U-14C]glucopyranoside uptake assay, COS-7 cells expressing human SGLT1. In kind it is cell-based. Conditions: COS-7 cells expressing human SGLT1, 2 h incubation. The procedure:
Full-length human SGLT1 cDNA on pDream2.1 expression vector was obtained from GenScript Corporation and propagated in Escherichia coli strain DH5α using Luria-Bertani (LB) medium containing ampicillin. Plasmid DNA was isolated using the QIAGEN Plasmid Midi Kit (QIAGEN Inc.). […] Transfected cells were stored in DMEM containing 10% dimethyl sulfoxide (DMSO) at −80° C.
(§1) Cells expressing SGLT1 or SGLT2 were seeded on 96-well ScintiPlate scintillating plates (PerkinElmer, Inc.) in DMEM containing 10% FBS (1×10^5 cells per well in 100 μL medium) incubated at 37° C. under 5% CO2 for 48 h prior to the assay. Cells were washed twice with 150 μL of either sodium buffer (137 mM NaCl, 5.4 mM KCl, 2.8 mM CaCl2, 1.2 mM MgCl2, 10 mM tris(hydroxymethyl)aminomethane/N2-hydroxyethylpiperazine-N′-ethanesulfonic acid [Tris/Hepes], pH 7.2) or sodium-free buffer (137 mM N-methyl-glucamine, 5.4 mM KCl, 2.8 mM CaCl2, 1.2 mM MgCl2, 10 mM Tris/Hepes, pH 7.2). Test compound in 50 μL each of sodium or sodium-free buffer containing 40 μCi/L methyl-α-D-[U-^14C]glucopyranoside (Amersham Biosciences/GE Healthcare), either with (symbols in parentheses) or without (symbols without parentheses) 25% human serum, was added per well of a 96-well plate and incubated at 37° C. with shaking for either 2 h (SGLT1 assay) or 1.5 h (SGLT2 assay). Cells were washed twice with 150 μL of wash buffer (137 mM N-methylglucamine, 10 mM Tris/Hepes, pH 7.2) and methyl-α-D-[U-^14C]glucopyranoside uptake was quantitated using a TopCount scintillation counter (PerkinElmer, Inc.). Sodium-dependent glucopyranoside uptake was measured by subtracting the values obtained with sodium-free buffer from those obtained using sodium buffer (average of triplicate determinations).

For another assay, the target named is T2, human SGLT2 (Homo sapiens, UniProt P31639).
T2 construct: A full-length cDNA clone expressing human SGLT2 (GenScript Corporation) was subcloned
T2 sequence (P31639 1-672): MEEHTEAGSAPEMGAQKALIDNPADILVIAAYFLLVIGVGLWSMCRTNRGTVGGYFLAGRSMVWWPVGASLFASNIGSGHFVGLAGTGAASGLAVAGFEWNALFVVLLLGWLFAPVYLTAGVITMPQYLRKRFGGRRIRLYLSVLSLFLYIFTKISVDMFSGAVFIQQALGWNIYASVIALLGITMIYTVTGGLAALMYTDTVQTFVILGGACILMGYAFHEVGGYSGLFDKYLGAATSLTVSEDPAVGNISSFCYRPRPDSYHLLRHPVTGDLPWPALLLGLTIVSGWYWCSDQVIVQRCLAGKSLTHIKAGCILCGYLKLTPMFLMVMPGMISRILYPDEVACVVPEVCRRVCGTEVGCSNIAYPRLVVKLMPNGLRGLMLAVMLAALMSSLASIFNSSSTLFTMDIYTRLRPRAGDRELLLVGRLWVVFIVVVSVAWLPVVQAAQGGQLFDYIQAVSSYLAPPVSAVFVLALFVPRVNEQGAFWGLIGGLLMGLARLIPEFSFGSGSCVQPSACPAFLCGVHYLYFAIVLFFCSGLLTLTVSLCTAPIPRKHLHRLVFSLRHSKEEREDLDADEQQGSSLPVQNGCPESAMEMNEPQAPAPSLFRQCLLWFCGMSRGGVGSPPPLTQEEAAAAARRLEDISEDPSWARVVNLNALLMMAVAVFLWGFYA
In words: Methyl-α-D-[U-14C]glucopyranoside uptake assay, cells stably expressing human SGLT2. In kind it is cell-based. To be noted: HEK293.ETN cells expressing human SGLT2, 1.5 h incubation.
Text: A full-length cDNA clone expressing human SGLT2 (GenScript Corporation) was subcloned into […] and Not I sites of pEAK15 expression vector. Clones harboring the cDNA inserts were identified by restriction analysis.
Plasmid containing human SGLT2 was linearized with Nsi I and purified by agarose gel electrophoresis. Using Lipofectamine 2000 Transfection Reagent (Invitrogen Corporation), DNA was transfected into HEK293.ETN cells and cultured in Dulbecco's Modified Eagle Medium (DMEM) containing 10% fetal bovine serum (FBS) at 37° C. under 5% CO2 for 24 h. Transfectants were selected in the same growth medium supplemented with puromycin (Invitrogen Corporation) for two weeks. Puromycin-resistant cells were recovered and seeded on a fresh 96-well plate (single cell per well) and cultured in the presence of puromycin until cells became confluent. Puromycin-resistant clones were evaluated for SGLT2 activity in the methyl-α-D-[U-^14C]glucopyranoside uptake assay described below.
as §1

Where [1] appears, read: without human serum (symbols without parentheses).
The mark [2] stands for this setting: with 25% human serum (symbols in parentheses).

As a reminder, the IC50 is the midpoint of a concentration-inhibition curve. On to `C=CCOCCc1cc(Cl)c(Cc2ccc(CC)cc2)cc1[C@@H]1O[C@H](CO)[C@@H](O)[C@H](O)[C@H]1O` [Compound AD, (2S,3R,4R,5S,6R)-2-(2-(2-(allyloxy)ethyl)-4-chloro-5-(4-ethylbenzyl)phenyl)-6-(hydroxymethyl)tetrahydro-2H-pyran-3,4,5-triol], for which the IC50 was above 10000 nM at human SGLT1 (setting [1]) and below 1000 nM on human SGLT2 (setting [1]).

As for `CCc1ccc(Cc2cc([C@@H]3O[C@H](CO)[C@@H](O)[C@H](O)[C@H]3O)c(CCOCCO)cc2Cl)cc1` [Compound AG, (2S,3R,4R,5S,6R)-2-(4-chloro-5-(4-ethylbenzyl)-2-(2-(2-hydroxyethoxy)ethyl)phenyl)-6-(hydroxymethyl)tetrahydro-2H-pyran-3,4,5-triol], the IC50 on human SGLT1 (setting [1]) is 1000 to 10000 nM; at human SGLT2 (setting [1]), below 1000 nM.

For `CCc1ccc(Cc2cc([C@@H]3O[C@H](CO)[C@@H](O)[C@H](O)[C@H]3O)c(CCOCCF)cc2Cl)cc1` [Compound AH, (2S,3R,4R,5S,6R)-2-(4-chloro-5-(4-ethylbenzyl)-2-(2-(2-fluoroethoxy)ethyl)phenyl)-6-(hydroxymethyl)tetrahydro-2H-pyran-3,4,5-triol], the IC50 on human SGLT1 (setting [1]) is 1000 to 10000 nM; on human SGLT2 (setting [1]), below 1000 nM.

Turning to `CCc1ccc(Cc2cc([C@@H]3O[C@H](CO)[C@@H](O)[C@H](O)[C@H]3O)c(CCOCC(F)F)cc2Cl)cc1` [Compound AI, (2S,3R,4R,5S,6R)-2-(4-chloro-2-(2-(2,2-difluoroethoxy)ethyl)-5-(4-ethylbenzyl)phenyl)-6-(hydroxymethyl)tetrahydro-2H-pyran-3,4,5-triol], the half-inhibitory concentration (IC50) on human SGLT1 (setting [1]) is above 10000 nM; at human SGLT2 (setting [1]), below 1000 nM.

For the molecule `CCc1ccc(Cc2cc([C@@H]3O[C@H](CO)[C@@H](O)[C@H](O)[C@H]3O)c(CCOCC(F)(F)F)cc2Cl)cc1` [Compound AK, (2S,3R,4R,5S,6R)-2-(4-chloro-5-(4-ethylbenzyl)-2-(2-(2,2,2-trifluoroethoxy)ethyl)phenyl)-6-(hydroxymethyl)tetrahydro-2H-pyran-3,4,5-triol], the IC50 was above 10000 nM on human SGLT1 (setting [1]) and below 1000 nM on human SGLT2 (setting [1]).

As to `CCc1ccc(Cc2cc([C@@H]3O[C@H](CO)[C@@H](O)[C@H](O)[C@H]3O)c(COCCCO)cc2Cl)cc1` [Compound AL, (2S,3R,4R,5S,6R)-2-(4-chloro-5-(4-ethylbenzyl)-2-((3-hydroxypropoxy)methyl)phenyl)-6-(hydroxymethyl)tetrahydro-2H-pyran-3,4,5-triol], the results for the IC50 at human SGLT1 (setting [1]) and at human SGLT2 (setting [1]) were above 10000 nM and below 1000 nM, respectively.

On to `C#CCOCCc1cc(Cl)c(Cc2ccc(CC)cc2)cc1[C@@H]1O[C@H](CO)[C@@H](O)[C@H](O)[C@H]1O` [Compound AM, (2S,3R,4R,5S,6R)-2-(4-chloro-5-(4-ethylbenzyl)-2-(2-(prop-2-ynyloxy)ethyl)phenyl)-6-(hydroxymethyl)tetrahydro-2H-pyran-3,4,5-triol], for which the 50% inhibitory concentration (IC50) is above 10000 nM at human SGLT1 (setting [1]) and below 1000 nM on human SGLT2 (setting [1]).

Regarding `CC#CCOCCc1cc(Cl)c(Cc2ccc(CC)cc2)cc1[C@@H]1O[C@H](CO)[C@@H](O)[C@H](O)[C@H]1O` [Compound AN, (2S,3R,4R,5S,6R)-2-(2-(2-(but-2-ynyloxy)ethyl)-4-chloro-5-(4-ethylbenzyl)phenyl)-6-(hydroxymethyl)tetrahydro-2H-pyran-3,4,5-triol], the IC50 at human SGLT1 (setting [1]) was 1000 to 10000 nM; on human SGLT2 (setting [1]), below 1000 nM.

For `C#CCOCCc1cc(Cl)c(Cc2ccc(OCC)cc2)cc1[C@@H]1O[C@H](CO)[C@@H](O)[C@H](O)[C@H]1O` [Compound AO, (2S,3R,4R,5S,6R)-2-(4-chloro-5-(4-ethoxybenzyl)-2-(2-(prop-2-ynyloxy)ethyl)phenyl)-6-(hydroxymethyl)tetrahydro-2H-pyran-3,4,5-triol], the IC50 was above 10000 nM at human SGLT1 (setting [1]) and below 1000 nM at human SGLT2 (setting [1]).

`C=CCOCCOc1cc(Cl)c(Cc2ccc(CC)cc2)cc1[C@@H]1O[C@H](CO)[C@@H](O)[C@H](O)[C@H]1O` [Compound AW, (2S,3R,4R,5S,6R)-2-(2-(2-(allyloxy)ethoxy)-4-chloro-5-(4-ethylbenzyl)phenyl)-6-(hydroxymethyl)tetrahydro-2H-pyran-3,4,5-triol]: the half-maximal inhibitory concentration (IC50) at human SGLT1 (setting [1]) was above 10000 nM; on human SGLT2 (setting [1]), below 1000 nM.

For `CC#CCOCc1cc(Cl)c(Cc2ccc(CC)cc2)cc1[C@@H]1O[C@H](CO)[C@@H](O)[C@H](O)[C@H]1O` [Compound AX, (2S,3R,4R,5S,6R)-2-(2-((but-2-ynyloxy)methyl)-4-chloro-5-(4-ethylbenzyl)phenyl)-6-(hydroxymethyl)tetrahydro-2H-pyran-3,4,5-triol], the half-maximal inhibitory concentration (IC50) at human SGLT1 (setting [2]) was above 10000 nM; on human SGLT2 (setting [2]), below 1000 nM.

Consider `CC#CCOCc1cc(Cl)c(Cc2ccc(OCC)cc2)cc1[C@@H]1O[C@H](CO)[C@@H](O)[C@H](O)[C@H]1O` [Compound AY, (2S,3R,4R,5S,6R)-2-(2-((but-2-ynyloxy)methyl)-4-chloro-5-(4-ethoxybenzyl)phenyl)-6-(hydroxymethyl)tetrahydro-2H-pyran-3,4,5-triol], for which the figures for the IC50 on human SGLT1 (setting [1]) and at human SGLT2 (setting [1]) were above 10000 nM and below 1000 nM, respectively.

`C=CCOCc1cc(Cl)c(Cc2ccc(OCC)cc2)cc1[C@@H]1O[C@H](CO)[C@@H](O)[C@H](O)[C@H]1O` [Compound AZ, (2S,3R,4R,5S,6R)-2-(2-(allyloxymethyl)-4-chloro-5-(4-ethoxybenzyl)phenyl)-6-(hydroxymethyl)tetrahydro-2H-pyran-3,4,5-triol]: the IC50 was above 10000 nM on human SGLT1 (setting [1]) and below 1000 nM at human SGLT2 (setting [1]).

Turning to `CC#CCOCc1cc(Cl)c(Cc2ccc(OC)cc2)cc1[C@@H]1O[C@H](CO)[C@@H](O)[C@H](O)[C@H]1O` [Compound BA, (2S,3R,4R,5S,6R)-2-(2-((but-2-ynyloxy)methyl)-4-chloro-5-(4-methoxybenzyl)phenyl)-6-(hydroxymethyl)tetrahydro-2H-pyran-3,4,5-triol], the IC50 was above 10000 nM at human SGLT1 (setting [2]) and below 1000 nM at human SGLT2 (setting [2]).
